Assay results as given in patent US6794376B2, “Methods and compositions for enhancing diffusion of therapeutic agents through tissue” (William Beaumont Hospital, priority 2000, dated 2004).

Tests used:
[1] = test system: Spheroids made from MCF-7 human breast carcinoma cells; assay: Doxorubicin penetration and morphology in MCF-7 spheroids treated with permeabilizer, with or without hyperthermia; format: cell-based
Procedure: Spheroids made from MCF-7 human breast carcinoma cells were treated with 3.0 micrograms per milliliter doxorubicin for six hours at various temperatures and under various permeabilizer conditions. Doxorubicin is an anti-neoplastic drug frequently used in chemotherapy procedures. When the spheroids were treated for six hours at 37.0° C. in the absence of permeabilizer, the drug penetrated only six cell layers into the spheroids. […] The spheroids in this experiment also underwent a characteristic change in morphology. […] These changes in spheroid morphology and drug penetration were never observed in control spheroids that received no permeabilizer treatment. Furthermore, these changes were never observed in spheroids that received sham treatment, which included exposure to all components used in the permeabilizer emulsion except the permeabilizer.
In this example, spheroids were treated as in example 1 with the addition of hyperthermia as an additional variable in the experiment. Hyperthermia in this example involved raising the temperature of the spheroids to approximately 40° C. […] Hyperthermia treatment alone had no effect on penetration of doxorubicin or upon the intercellular space.

[2] = test system: spheroids made from DU-145 human prostate carcinoma cells; assay: Adenovirus vector (beta-galactosidase reporter) penetration into DU-145 spheroids treated with permeabilizer, with or without hyperthermia; format: cell-based
Procedure: The spheroids made from DU-145 human prostate carcinoma cells were grown to an average diameter of 500 micrometers and then suspended in culture medium containing 0.1% to 3% cyclopentadecanolide plus adenovirus vectors that had beta-galactosidase as a reporter transgene. Once a viral vector entered a cell, beta-galactosidase was expressed constitutively under control of the human CMV promoter. The experimental protocol called for the spheroids to be incubated for 48 to 72 hours following treatment to permit transgene expression. It should be noted that a reporter gene was utilized in this Example, as well as in Examples 4 and 5, only to facilitate determination of the extent of vector diffusion. Any other polynucleotide could be used in this system, including suicide genes and genes encoding therapeutic proteins.
Within 6 to 24 hours following permeabilizer treatment, depending upon the permeabilizer concentration used, the cells within the spheroid regions where the intercellular space was increased became detached from the spheroid.

[3] = test system: Du-145 tumors grafted onto mice; assay: Adenovirus vector diffusion (X-gal staining) in Du-145 xenograft tumors injected with permeabilizer, with or without hyperthermia; format: in vivo; settings: single injection of 30 microliters, tumor retrieved at 72 hours
Procedure: Du-145 tumors grafted onto mice were injected with cyclopentadecanolide and adenovirus vector that contained the beta-galactosidase transgene, all in PBS. The tumor was retrieved 72 hours after treatment, cryosectioned, and stained with X-gal to visualize beta-galactosidase expression.
In this example, tumors were heated to 41.0° C. using an unfocused ultrasonic transducer prior to treatment with permeabilizer and virus vector. When hyperthermia was established, the tumor was given a single injection of 30 microliters containing 6% cyclopertadecanolide and 2×10^10 adenovirus vectors that contained the beta-galactosidase transgene, all in PBS. Following the injection, the hyperthermia was continued for an additional 45 minutes. That is, the elevated temperature was maintained for 45 minutes after injection. The tumor was retrieved 72 hours following the injection, cryosectioned, and stained with X-gal to visualize beta-galactosidase expression.
The voids were filled with light amber colored, gelatinous material, indicating break-down of the tissue cell membranes.

[4] = Highest permeabilizer concentration that gives a stable emulsion; format: physicochemical
Procedure: As indicated above, prior to delivery to the tissue of interest, a working emulsion of the permeabilizer is prepared, preferably from one of the stocks. The working emulsion preferably comprises one or more permeabilizers in a buffer. The concentration of the permeabilizer will depend on the permeabilizer used in the procedure being conducted. Because ethylene brassylate and civetone are liquids, they can be administered to a tissue at concentrations up to 100%. Preferably, the working emulsion contains ethylene brassylate, civetone, or a combination of both at a concentration of between approximately 0.1 and 20% (volume/volume). As indicated above, Cyclopentadecanone and cyclopentadecanolide, however, are solids. The highest concentration of cyclopentadecanone or cyclopentadecanolide that can be made into a stable emulsion is approximately 25% (weight/volume). As a result, the working emulsion preferably contains cyclopentadecanone or cyclopentadecanolide at a concentration of between approximately 0.1 and 25%. Particularly preferred is a working solution that contains cyclopentadecanone, cyclopentadecanolide, or a combination of both, at a concentration of between approximately 0.1 and 7%.

[5] = 6% permeabilizer and 2×10^10 adenovirus vectors, hyperthermia 41.0° C. kept for 45 minutes after injection

Compound | depth of doxorubicin penetration into the spheroids ([1]; 3.0 micrograms per milliliter doxorubicin, six hours, 37.0° C., absence of permeabilizer) | effect of hyperthermia treatment alone on penetration of doxorubicin ([1]; hyperthermia approximately 40° C., no permeabilizer) | transgene expression in cells that detached from the spheroids ([2]; 0.1% to 3% cyclopentadecanolide plus adenovirus vectors with beta-galactosidase reporter transgene) | cell detachment from the spheroid when hyperthermia was included ([2]; 0.1% to 3% cyclopentadecanolide plus hyperthermia) | X-gal staining from beta-galactosidase expression in tumor sections [3, 5] | tumor section morphology (tissue destruction) [3, 5] | X-gal staining from beta-galactosidase expression in tumor sections ([3]; 12% cyclopentadecanolide and 2×10^10 adenovirus vectors, no hyperthermia) | highest concentration that can be made into a stable emulsion [4] | spheroid morphology / intercellular space ([1]; 0.6% cyclopentadecanone, 37.0° C., six hours) | degree to which doxorubicin penetrated the spheroids ([1]; 3.0 micrograms per milliliter doxorubicin, six hours, culture medium containing 0.6% cyclopentadecanone, 37.0° C.) | permeabilizer activity with concurrent hyperthermia ([1]; as example 1 plus hyperthermia, approximately 40° C.) | doxorubicin penetration with permeabilizer and hyperthermia ([1]; as example 1 plus hyperthermia, approximately 40° C., doxorubicin fluorescence) | intercellular space with concurrent hyperthermia ([1]; as example 1 plus hyperthermia, approximately 40° C., intact and sectioned spheroids)
COc1cccc2c1C(=O)c1c(O)c3c(c(O)c1C2=O)C[C@@](O)(C(=O)CO)C[C@@H]3O[C@H]1C[C@H](N)[C@H](O)[C@H](C)O1 [doxorubicin, reference compound] | six | no effect |  |  |  |  |  |  |  |  |  |  | 
O=C1CCCCCCCCCCCCCCO1 [cyclopentadecanolide] |  |  | exhibit beta-galactosidase activity | grossly exacerbated | pervaded the remainder of the sections | large voids in the center of the sections | pervasive throughout the section | approximately 25 % (weight/volume) |  |  |  |  | 
O=C1CCCCCCCCCCCCCC1 [cyclopentadecanone] |  |  |  |  |  |  |  | approximately 25 % (weight/volume) | increase in intercellular space | essentially tripled | marked potentiation of permeabilizer activity | penetrated all recesses of the spheroids | greater increase in intercellular space
